The source of these data is patent US20140371280A1, “Method of treating diabetic peripheral neuropathy through amendment of pre-neuronal diabetic coagulative micro-angiopathy and neuronal deficiency of mitochondrial ATP production, and through induction of neuronal regeneration” (priority 2013, published 2014).

The subject of one experiment is arterioles. The note with it: yes/no; cited from earlier work.
The subject of the next experiment is neoangiogenesis. As to conditions: yes/no; cited from earlier work.
A further experiment concerns insulin sensitization. As to conditions: yes/no; cited from earlier work.
The subject of the next experiment is platelet aggregation. The note with it: yes/no; cited from earlier work.
Experiment [1] has as its system diabetic peripheral neuropathy. The experiment is described as follows: Clinical case: diabetic person with DPN of stocking-glove pattern and maceration in the big toe. The experiment is classed as in vivo, human patient. An excerpt:
An elderly patient of DPN with advanced DM of hyperglycemia, hypoinsulinemia, and HgbA1C elevated to 7.5%, presented themself with a typical stocking-glove pattern of DPN accompanied by maceration in the left big toe. A bitherapy of SAG+ALC halted their DPN.
The present DPN-relieving invention includes mainly four parts: (1) rescue with SAG-ALC of the tormenting DPN distress of pain, cold sensation, and maceration in the stocking-glove pattern; (2) expansion of the SAG-ALC regimen to include ALA; (3) extended use of the SAG+ALC+ALA principle for prevention of recurrence and maintenance; and (4) an extended use of the principle for induction of neuronal regeneration with SAG+ALC+ALA. • (1) Prompt halt of DPN symptoms with the application of SAG in order to amend the pre-neuronal coagulative microangiopathy and with ALC to amend the neuronal mitochondrial fatty acid transport across the carnithine window so as to help generating ATP through β-oxidation of fatty acids: the SAG+ALC principle. • A person with a 10-year history of DM developed signs and symptoms of DPN of the stocking-glove pattern and maceration in the big toe in the depth. […] The dosage could be 100 to 200 mg three times a day unless contraindicated by hemorrhagic diathesis. They were relieved of the distress but limitedly for 2-3 hours of post-dose. The patient was greatly depressed to learn that neuronal loss that could have already taken place might not be recovered with the SAG (Srinivasan et al. 2000)). • ALC was added at 1500 mg per day. The dosage range could be 500 to 4500 mg per day in the hope of eventual induction of neuronal regeneration (Tagliatela et al. 1991; Ishii et al. 2000). […] Thus, the SAG and ALC appeared to work synergistically. Within 2 months of this combination treatment, the soft swelling due to maceration in the depth of the big toe resolved (FIG. 1e). This ALC-SAG combination therapy may be continued as long as one's DPN status persists. […]

Turning to `CC/C=C\C/C=C\C/C=C\C/C=C\C/C=C\CCCC(=O)OCC` [Epadel, ethyl icosapentate], the Arteriolar dilation result in the experiment on arterioles is on record as “Yes”. Also, the Neo-angiogenesis entry in the experiment with neoangiogenesis was “No”. Moreover, the Insulin-sensitization result in the experiment on insulin sensitization is reported as “No”. Further, the “Anti-platelet Aggregation” value in the experiment on platelet aggregation is “Yes”.

With Heparin, the Arteriolar dilation entry in the experiment on arterioles is recorded as “No”. Also, in the experiment on neoangiogenesis, the Neo-angiogenesis result was “No”. In addition, the Insulin-sensitization result in the experiment with insulin sensitization was “No”. For the same compound, in the experiment on platelet aggregation, the “Anti-platelet Aggregation” value was “Yes”.

With `COc1cccc(CCc2ccccc2OCC(CN(C)C)OC(=O)CCC(=O)O)c1` (centres unmarked) [SAG, sarpogrelate], the Arteriolar dilation result in the experiment on arterioles is on record as “Yes”. Further, the Neo-angiogenesis entry with neoangiogenesis is recorded as “Yes”. Further, the “Duration of relief of distress post-dose” value in experiment [1] (SAG 600 mg per day, monotherapy) was in the range of 2 to 3 h. Further, in experiment [1] (each 200 mg dose of SAG, monotherapy), the “Duration of halt of DPN's pain and cold intolerance per dose” value was 3 to 4 h. Also, in experiment [1] (patient, SAG 600 mg, ALC 1500 mg, ALA 600 mg per day, EPR 100 mg three times a day, as combined), the “Effect on DPN symptoms (pain, cold sensation, numbness)” value was “appreciably but passingly alleviated”. In addition, the Insulin-sensitization result with insulin sensitization was “Yes”. The “Anti-platelet Aggregation” value in the experiment on platelet aggregation is reported as “Yes”.

Regarding `CC1CNc2c(cccc2S(=O)(=O)N[C@@H](CCCNC(=N)N)C(=O)N2CC[C@@H](C)C[C@@H]2C(=O)O)C1` (some centres unmarked) [Novastan, argatroban hydrate], in the experiment with arterioles, the Arteriolar dilation entry is “Yes”. For the same compound, the Neo-angiogenesis entry in the experiment on neoangiogenesis is listed as “No”. For the same compound, the Insulin-sensitization entry in the experiment with insulin sensitization is recorded as “No”. For the same compound, the “Anti-platelet Aggregation” value in the experiment on platelet aggregation is reported as “Yes”.

Consider `O=C1CCc2cc(OCCCCc3nnnn3C3CCCCC3)ccc2N1` [Pletaal, cilostazol], for which, in the experiment with arterioles, the Arteriolar dilation entry is recorded as “Yes”. Moreover, in the experiment with neoangiogenesis, the Neo-angiogenesis entry is reported as “No”. Further, in the experiment with insulin sensitization, the Insulin-sensitization result is listed as “No”. Also, in the experiment with platelet aggregation, the “Anti-platelet Aggregation” value was “Yes”.
